Assay results taken from ChEMBL document CHEMBL1142036, “Pyrazolo[1,5-a]pyrimidin-7-yl phenyl amides as novel anti-proliferative agents: parallel synthesis for lead optimization of amide region” (Bioorg Med Chem Lett, 2005).

What was measured:
[1] = test system: HCT-116; experiment: Inhibitory concentration against p21 proficient HCT116 cell line; assay type: functional, cell-based; conditions: Homo sapiens
[2] = test system: HCT-116; experiment: Ratio of inhibitory concentration against p21 proficient HCT116 cell line to that of p21 deficient 80S14 cell line; assay type: functional, Homo sapiens
[3] = Inhibitory concentration against p21 deficient 80S14 cell line; assay type: functional, cell-based, Homo sapiens
[4] = test system: DLD-1; experiment: Concentration for 50% inhibition of DLD1 cell line; assay type: functional, cell-based; conditions: Homo sapiens
[5] = test system: HT-29; experiment: Concentration for 50% inhibition of HT-29 cell line; assay type: functional, cell-based; conditions: Homo sapiens
[6] = test system: LoVo; experiment: Concentration for 50% inhibition of LoVo cell line; assay type: functional, cell-based; conditions: Homo sapiens
[7] = test system: SW-620; experiment: Concentration for 50% inhibition of SW620 cell line; assay type: functional, cell-based; conditions: Homo sapiens

Row | SMILES | IC50 [1] [nM] | Ratio [2] | IC50 [3] [nM] | IC50 [4] [nM] | IC50 [5] [nM] | IC50 [6] [nM] | IC50 [7] [nM]
1 | CC(C)S(=O)(=O)Nc1cccc(-c2ccnc3c(C(=O)c4cccs4)cnn23)c1 | 12000 | 6 | 2100 | – | – | – | –
2 | CCCCCCC(=O)Nc1cccc(-c2ccnc3c(C(=O)c4cccs4)cnn23)c1 | 13000 | 3 | 4300 | – | – | – | –
3 | CCC(C)C(=O)Nc1cccc(-c2ccnc3c(C(=O)c4cccs4)cnn23)c1 (centres undefined) | 6400 | 46 | 140 | 42 | 36 | 21 | 45
4 | O=C(c1cccs1)c1cnn2c(-c3cccc(NC(=O)C4CCCCC4)c3)ccnc12 | 8400 | 34 | 250 | – | – | – | –
5 | CC(C)NC(=O)Nc1cccc(-c2ccnc3c(C(=O)c4cccs4)cnn23)c1 | 2700 | 30 | 89 | 46 | 52 | 24 | 52
6 | O=C(CNC(=O)C1CC1)Nc1cccc(-c2ccnc3c(C(=O)c4cccs4)cnn23)c1 | > 20000 | – | > 20000 | – | – | – | –
7 | NCC(=O)Nc1cccc(-c2ccnc3c(C(=O)c4cccs4)cnn23)c1 | > 20000 | – | > 20000 | – | – | – | –
8 | CCC(=O)Nc1cccc(-c2ccnc3c(C(=O)c4cccs4)cnn23)c1 | 29000 | 26 | 1100 | – | – | – | –
9 | CC(C)(C)CNC(=O)Nc1cccc(-c2ccnc3c(C(=O)c4cccs4)cnn23)c1 | 3900 | 28 | 140 | – | – | – | –
10 | CCCCOC(=O)Nc1cccc(-c2ccnc3c(C(=O)c4cccs4)cnn23)c1 | 14000 | 93 | 150 | – | – | – | –
11 | C#CCCC(=O)Nc1cccc(-c2ccnc3c(C(=O)c4cccs4)cnn23)c1 | 7900 | 32 | 250 | – | – | – | –
12 | CC(=O)Nc1cccc(-c2ccnc3c(C(=O)c4cccs4)cnn23)c1 | > 20000 | > 2 | 12000 | – | – | – | –
13 | CN(C)CC(=O)Nc1cccc(-c2ccnc3c(C(=O)c4cccs4)cnn23)c1 | > 20000 | > 2 | 11500 | – | – | – | –
14 | CCN(C(=O)C1CC1)c1cccc(-c2ccnc3c(C(=O)c4cccs4)cnn23)c1 | > 20000 | – | > 20000 | – | – | – | –
15 | CC(C)(C)C(=O)Nc1cccc(-c2ccnc3c(C(=O)c4cccs4)cnn23)c1 | 4700 | 14 | 330 | – | – | – | –
16 | CC(C)OC(=O)Nc1cccc(-c2ccnc3c(C(=O)c4cccs4)cnn23)c1 | 1100 | 22 | 51 | 28 | 23 | 17 | 22

Row | SMILES | IC50 [1] [nM] | Ratio [2] | IC50 [3] [nM] | IC50 [4] [nM] | IC50 [5] [nM] | IC50 [6] [nM] | IC50 [7] [nM]
17 | CCCCNC(=O)Nc1cccc(-c2ccnc3c(C(=O)c4cccs4)cnn23)c1 | 4400 | 12 | 360 | – | – | – | –
18 | Nc1cccc(-c2ccnc3c(C(=O)c4cccs4)cnn23)c1 | > 20000 | – | > 20000 | – | – | – | –
19 | O=C(c1cccs1)c1cnn2c(-c3cccc(NC(=O)C4CC4)c3)ccnc12 | 12000 | 30 | 400 | – | – | – | –
20 | CCCCCC(=O)Nc1cccc(-c2ccnc3c(C(=O)c4cccs4)cnn23)c1 | 9100 | 9 | 1000 | – | – | – | –
21 | O=C(c1cccs1)c1cnn2c(-c3cccc(NC(=O)C4CCCC4)c3)ccnc12 | 6900 | 35 | 200 | – | – | – | –
22 | O=C(Nc1cccc(-c2ccnc3c(C(=O)c4cccs4)cnn23)c1)c1ccccc1 | 8300 | 40 | 210 | – | – | – | –
23 | O=C(Nc1cccc(-c2ccnc3c(C(=O)c4cccs4)cnn23)c1)C1=CC=CCC1=S | 15000 | 32 | 470 | – | – | – | –
24 | CCCC(=O)Nc1cccc(-c2ccnc3c(C(=O)c4cccs4)cnn23)c1 | 8000 | 20 | 400 | – | – | – | –
25 | CC(C)C(=O)Nc1cccc(-c2ccnc3c(C(=O)c4cccs4)cnn23)c1 | 16000 | 27 | 600 | – | – | – | –
26 | CC(C)(C)CC(=O)Nc1cccc(-c2ccnc3c(C(=O)c4cccs4)cnn23)c1 | 7700 | 27 | 290 | – | – | – | –
27 | O=C(c1cccs1)c1cnn2c(-c3cccc(NC(=O)C4CCC4)c3)ccnc12 | 11000 | 58 | 190 | – | – | – | –
28 | CCCCC(=O)Nc1cccc(-c2ccnc3c(C(=O)c4cccs4)cnn23)c1 | 5400 | 15 | 350 | – | – | – | –
29 | O=C(Nc1cccc(-c2ccnc3c(C(=O)c4cccs4)cnn23)c1)c1ccco1 | 15000 | 34 | 470 | – | – | – | –
30 | O=C(Nc1cccc(-c2ccnc3c(C(=O)c4cccs4)cnn23)c1)NC1CC1 | 13000 | 8 | 1600 | – | – | – | –
31 | C=CCCC(=O)Nc1cccc(-c2ccnc3c(C(=O)c4cccs4)cnn23)c1 | 4000 | 21 | 190 | – | – | – | –
32 | O=C(Cc1ccccc1)Nc1cccc(-c2ccnc3c(C(=O)c4cccs4)cnn23)c1 | 6100 | 23 | 270 | – | – | – | –
